The record followed here is patent US20120088803A1, “CONTROL AGENT FOR SOFT ROT AND CONTROL METHOD FOR THE SAME” (Ishihara Sangyo Kaisha, Ltd, priority 2009, published 2012).

“And” between values parts separate entries of the source, which are not always exact repeats. Equal values may be shown once.

This assay concerns Chinese cabbage soft rot. Briefly: Test for disease control of Chinese cabbage with or without mulch-sheet, field (Example 5). The format is in vivo, Erwinia carotovora. Also noted: key to Disease incidence rate: % of examined plants that are diseased; key to Disease control value: (1 − severity treated / severity untreated) × 100; key to Disease severity: Σ(plants per class × index 0-4)/(plants examined × 4) × 100. Particulars: 250 g ai/10 a; for Disease incidence rate / Disease severity / Disease control value: 150 L/10 a, Harebutai 65, 64 days; for Disease control value: vs untreated plot. From the text: (Disease incidence rate)=[(number of diseased plants)/(number of plants examined)]*100
(Disease severity)={S [(number of diseased plants in each class into which the plants are classified according to the degree of disease)*(disease index)]/[(number of plants examined)*4]}*100
(Disease control value)={1-[(Disease severity in treated plot)/(Disease severity in untreated plot)]}*100
Incidentally, the evaluation criteria for the disease index are as follows. • (Disease index) • 0: No lesion • 1: Lesions appear only in part of outer leaves (shipment can be made). • 2: Lesions appear in outer leaves and part of head leaves (the damaged part is removed and shipment as a small size plant can be made, rated Grade B). • 3: Lesions appear in most head leaves or more (shipment cannot be made). • 4: Lesions appear in the entire plant and the plant dies.
Preparation was performed using 500 g/L of 3-chloro-N-(3-chloro-5-trifluoromethyl-2-pyridyl)-alpha,alpha,alpha-trifluoro-2,6-dinit ro-p-toluidine (fluazinam, Frowncide SC (trade name), manufactured by Ishihara Sangyo Kaisha, Ltd.) such that the amount of the active ingredient was 250 g ai/10 a (500 mL product/10 a), and the amount of dilution water was 150 L/10 a.
A mulch-sheet for agricultural use was spreaded on soil, and planting holes for settlement (diameter: about 5 cm) were made, and then, the spray solution prepared in the above was sprayed onto the planting holes such that the spraying amount was 0.25 g/m^2 (150 L/10 a), followed by air-drying. Then, seedlings of Chinese cabbage (cultivar: Harebutai 65) grown for 4 weeks in a cell tray (128 holes/nursery box) were planted such that 19 seedlings were planted in one test plot having an area of 2.4 m^2 with two replications.
The spray solution prepared in the above was sprayed onto the planting holes such that the spraying amount was 0.25 g/m^2 (150 L/10 a) without spreading a mulch-sheet for agricultural use, followed by air-drying. Then, seedlings of Chinese cabbage (cultivar: Harebutai 65) grown for 4 weeks in a cell tray (128 holes/nursery box) were planted such that 19 seedlings were planted in one test plot having an area of 2.4 m^2 with two replications.
The degree of disease incidence was examined for all the plants in each test plot 64 days after the start of the test, and the disease severity and the disease control value were evaluated. Incidentally, the disease severity and the disease control value were obtained in the same manner as described above.

Setting [1] is: with mulch-sheet for agricultural use, Average.
Where [2] appears, read: with mulch-sheet for agricultural use, single replications I-II.
[3] abbreviates: without mulch-sheet for agricultural use, Average.

Consider `O=[N+]([O-])c1cc(C(F)(F)F)c(Cl)c([N+](=O)[O-])c1Nc1ncc(C(F)(F)F)cc1Cl` [Fluazinam, 3-chloro-N-(3-chloro-5-trifluoromethyl-2-pyridyl)-alpha,alpha,alpha-trifluoro-2,6-dinit ro-p-toluidine], for which the “Control effect without mulch-sheet compared with treated plot covered with mulch-sheet (in words)” value (Table 5 test, moderate incidence conditions) is reported as “substantially equal”. The Disease incidence rate runs as follows: under setting [1], 31.2; under setting [2], 23.5 and 38.9; under setting [3], 28.9. For the same compound, the Disease severity under setting [1] is 8.5; the Disease severity under setting [2] was 5.9 and 11.1; the Disease severity under setting [3] stood at 8.6. In addition, the Disease control value runs as follows: (with mulch-sheet for agricultural use) 73.1; (without mulch-sheet for agricultural use) 72.8.
